Data as given in ChEMBL document CHEMBL1201862, “PubChem BioAssay data set” (2004).
Values belong to the molecule of their own block, whether it stands above or below them. Active and inactive are the calls of the source.

What was measured:
[1] = molecular target: Polyadenylate-binding protein 1 (Homo sapiens, UniProt P11940); experiment: PABP inhibition in translation initiation, SAR follow-up (AID 435018); assay type: functional
[2] = molecular target: Eukaryotic translation initiation factor 4H (Homo sapiens, UniProt Q15056); experiment: inhibitors of translation initiation factor eIF4H – SAR follow-up (AID 435011); assay type: functional
[3] = molecular target: Paired box protein Pax-8 (Homo sapiens, UniProt Q06710); experiment: PAX8 transcriptional activity inhibition in RMG-I – RMG-I cells, luciferase, cherry-pick, dose response (AID 687027); assay type: functional, cell-based;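 note: luciferase reporter driven by Pax8 target thyroperoxidase promoter measured by SteadyGlo luminescence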
Sequence of Paired box protein Pax-8 (Q06710 whole entry): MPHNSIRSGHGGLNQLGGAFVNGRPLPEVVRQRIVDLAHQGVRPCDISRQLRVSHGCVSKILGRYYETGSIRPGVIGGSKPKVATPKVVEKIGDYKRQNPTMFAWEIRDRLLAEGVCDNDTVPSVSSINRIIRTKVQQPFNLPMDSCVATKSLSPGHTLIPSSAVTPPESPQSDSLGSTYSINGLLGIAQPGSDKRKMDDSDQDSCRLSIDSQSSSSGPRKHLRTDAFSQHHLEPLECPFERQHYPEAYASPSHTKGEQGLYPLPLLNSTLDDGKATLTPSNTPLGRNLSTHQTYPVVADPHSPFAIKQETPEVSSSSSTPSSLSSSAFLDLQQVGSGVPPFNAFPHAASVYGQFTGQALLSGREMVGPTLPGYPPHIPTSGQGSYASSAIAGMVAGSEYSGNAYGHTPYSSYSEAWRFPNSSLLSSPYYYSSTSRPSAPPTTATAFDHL

[4] = molecular target: Melanocortin receptor 4 (Homo sapiens, UniProt P32245); assay type: functional, cell-based;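 note: Cell-based assay with luminescence read-out, confirmatory dose-response testing for agonist activity of biased ligands at MC4R; human U2OS cells with tagged receptor and beta-arrestin; potency of agonists that increase receptor coupling to beta-arrestin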
Sequence of Melanocortin receptor 4 (P32245 whole entry): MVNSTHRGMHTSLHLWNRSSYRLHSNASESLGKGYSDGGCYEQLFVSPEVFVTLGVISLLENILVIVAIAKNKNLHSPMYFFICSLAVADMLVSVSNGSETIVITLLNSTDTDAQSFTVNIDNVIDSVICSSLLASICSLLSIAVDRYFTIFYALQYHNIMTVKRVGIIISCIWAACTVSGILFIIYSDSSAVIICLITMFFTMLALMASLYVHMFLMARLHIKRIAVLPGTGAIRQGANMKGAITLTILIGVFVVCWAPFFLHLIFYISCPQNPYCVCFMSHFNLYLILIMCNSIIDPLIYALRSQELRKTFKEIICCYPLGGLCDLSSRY

[5] = Luminescence Cell-Based Dose Retest to Confirm Inhibitors of Cancer Stem Cells. [Related pubchem assays (depositor defined):AID2717, AID2721]; assay type: functional; details: Homo sapiens
[6] = molecular target: Integrin alpha-4 (Homo sapiens, UniProt P13612); experiment: allosteric modulators of alpha4 integrin VLA-4 – cell-based, LIBS antibody binding, flow cytometry, SAR follow-up (AID 488791); assay type: functional
Sequence of Integrin alpha-4 (P13612 whole entry): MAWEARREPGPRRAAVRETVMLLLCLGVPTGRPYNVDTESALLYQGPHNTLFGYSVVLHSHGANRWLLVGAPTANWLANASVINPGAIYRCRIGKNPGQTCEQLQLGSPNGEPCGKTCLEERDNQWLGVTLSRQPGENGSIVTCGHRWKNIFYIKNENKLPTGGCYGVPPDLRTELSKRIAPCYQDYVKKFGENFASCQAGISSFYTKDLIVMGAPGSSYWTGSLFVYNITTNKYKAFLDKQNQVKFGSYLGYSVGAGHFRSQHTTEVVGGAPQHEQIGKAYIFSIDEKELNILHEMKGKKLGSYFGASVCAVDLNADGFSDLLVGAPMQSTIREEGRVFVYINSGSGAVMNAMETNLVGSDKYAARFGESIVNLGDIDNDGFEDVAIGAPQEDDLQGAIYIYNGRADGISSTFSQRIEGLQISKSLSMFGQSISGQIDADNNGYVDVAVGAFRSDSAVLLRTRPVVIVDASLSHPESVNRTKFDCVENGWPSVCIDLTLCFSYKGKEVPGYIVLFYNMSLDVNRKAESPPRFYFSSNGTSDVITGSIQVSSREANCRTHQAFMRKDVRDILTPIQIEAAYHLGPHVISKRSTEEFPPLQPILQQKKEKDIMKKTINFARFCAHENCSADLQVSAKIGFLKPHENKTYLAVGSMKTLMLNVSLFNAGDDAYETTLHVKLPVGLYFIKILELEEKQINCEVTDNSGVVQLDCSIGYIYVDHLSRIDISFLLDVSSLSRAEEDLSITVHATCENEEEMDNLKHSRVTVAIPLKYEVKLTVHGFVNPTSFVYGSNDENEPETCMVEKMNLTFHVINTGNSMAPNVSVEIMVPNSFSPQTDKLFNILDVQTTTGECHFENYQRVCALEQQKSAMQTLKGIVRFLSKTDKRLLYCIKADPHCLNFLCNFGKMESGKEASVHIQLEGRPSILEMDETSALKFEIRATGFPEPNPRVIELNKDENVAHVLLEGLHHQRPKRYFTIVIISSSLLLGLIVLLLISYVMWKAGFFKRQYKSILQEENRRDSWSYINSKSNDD

[7] = molecular target: Multidrug resistance protein CDR2 (Candida albicans (strain SC5314 / ATCC MYA-2876) (Yeast), UniProt P78595); experiment: blockers of Nile Red efflux by Candida CDR2 – S. cerevisiae AD1-8u, singleplex, Cherry Pick2 set, dose response (AID 623994); assay type: functional; details: read-out: EC50_MICROM
Sequence of Multidrug resistance protein CDR2 (P78595 whole entry): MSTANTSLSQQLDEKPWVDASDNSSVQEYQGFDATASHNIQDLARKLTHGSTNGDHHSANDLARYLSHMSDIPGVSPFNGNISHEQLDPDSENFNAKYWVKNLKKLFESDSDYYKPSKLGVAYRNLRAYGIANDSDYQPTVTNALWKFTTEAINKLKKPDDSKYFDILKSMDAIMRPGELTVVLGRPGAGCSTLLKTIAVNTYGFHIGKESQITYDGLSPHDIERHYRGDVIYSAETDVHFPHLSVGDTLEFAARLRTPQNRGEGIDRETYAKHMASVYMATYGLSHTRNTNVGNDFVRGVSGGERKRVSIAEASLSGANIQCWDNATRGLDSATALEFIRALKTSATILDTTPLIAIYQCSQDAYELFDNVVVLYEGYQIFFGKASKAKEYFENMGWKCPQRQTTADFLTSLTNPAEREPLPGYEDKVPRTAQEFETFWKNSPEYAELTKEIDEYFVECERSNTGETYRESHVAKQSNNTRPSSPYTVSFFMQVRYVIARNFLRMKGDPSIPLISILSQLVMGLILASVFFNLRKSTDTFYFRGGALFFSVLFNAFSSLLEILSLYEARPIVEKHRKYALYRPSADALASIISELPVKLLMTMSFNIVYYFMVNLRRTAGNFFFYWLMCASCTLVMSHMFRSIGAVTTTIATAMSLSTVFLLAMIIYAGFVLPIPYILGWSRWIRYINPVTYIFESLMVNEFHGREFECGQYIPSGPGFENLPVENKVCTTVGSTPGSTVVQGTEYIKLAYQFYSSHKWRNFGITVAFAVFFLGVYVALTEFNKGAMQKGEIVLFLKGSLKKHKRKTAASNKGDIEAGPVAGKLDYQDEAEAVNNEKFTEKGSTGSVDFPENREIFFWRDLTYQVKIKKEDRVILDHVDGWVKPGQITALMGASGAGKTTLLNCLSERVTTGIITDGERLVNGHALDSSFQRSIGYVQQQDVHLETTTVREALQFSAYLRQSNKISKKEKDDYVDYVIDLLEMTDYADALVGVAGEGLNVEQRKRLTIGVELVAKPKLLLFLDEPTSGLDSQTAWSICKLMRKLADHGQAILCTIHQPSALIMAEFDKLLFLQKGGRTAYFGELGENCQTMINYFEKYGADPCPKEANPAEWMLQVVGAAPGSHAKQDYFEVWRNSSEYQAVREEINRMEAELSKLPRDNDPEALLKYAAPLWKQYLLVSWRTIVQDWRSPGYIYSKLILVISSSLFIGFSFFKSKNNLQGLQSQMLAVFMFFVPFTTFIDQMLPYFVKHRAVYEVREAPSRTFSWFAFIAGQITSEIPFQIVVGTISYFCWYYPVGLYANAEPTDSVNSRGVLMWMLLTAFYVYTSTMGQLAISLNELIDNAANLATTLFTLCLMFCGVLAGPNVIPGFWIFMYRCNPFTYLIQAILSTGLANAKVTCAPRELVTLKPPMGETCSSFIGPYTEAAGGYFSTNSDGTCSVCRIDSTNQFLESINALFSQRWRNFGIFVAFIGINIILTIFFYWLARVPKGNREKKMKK

[8] = molecular target: T1, Ubiquitin-conjugating enzyme E2 N (Homo sapiens, UniProt P61088); assay type: functional;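 note: Dose-response confirmation in a TR-FRET assay detecting UBC13-driven polyubiquitin chain formation, inhibition measured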
T1 sequence (P61088 whole entry): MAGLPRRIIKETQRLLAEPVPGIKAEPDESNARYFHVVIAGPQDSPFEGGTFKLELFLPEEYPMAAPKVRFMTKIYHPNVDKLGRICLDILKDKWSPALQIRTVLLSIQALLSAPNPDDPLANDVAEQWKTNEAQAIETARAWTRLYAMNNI

[9] = tested on: INS1; experiment: INS-1E survival protection against cytokine death – cell-based, luminescence, retest, dose response (AID 449756); assay type: functional; details: Rattus norvegicus;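 note: cell death triggered by IL-1 beta plus TNF-alpha plus IFN-gamma mixture; protective hits raise ATP signal compared with cytokine alone wells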
[10] = general cell-killing toxicity readout – plate reader, dry powder samples, cytotoxicity control for PAX8 inhibitor project, dose response (AID 743021); assay type: functional, cell-based
[11] = molecular target: CAAX prenyl protease 2 (Saccharomyces cerevisiae S288c, UniProt Q03530); assay type: biochemical
Sequence of CAAX prenyl protease 2 (Q03530 whole entry): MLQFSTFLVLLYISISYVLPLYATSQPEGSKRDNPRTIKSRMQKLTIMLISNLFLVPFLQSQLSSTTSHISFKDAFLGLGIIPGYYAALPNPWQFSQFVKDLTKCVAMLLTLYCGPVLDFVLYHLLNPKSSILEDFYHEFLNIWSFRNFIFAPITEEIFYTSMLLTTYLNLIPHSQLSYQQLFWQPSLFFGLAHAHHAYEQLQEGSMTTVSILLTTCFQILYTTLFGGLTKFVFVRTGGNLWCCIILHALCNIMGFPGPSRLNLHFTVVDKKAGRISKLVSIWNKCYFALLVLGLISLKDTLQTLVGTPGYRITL

[12] = molecular target: Trypsin (Sus scrofa, UniProt P00761); experiment: trypsin protease activity blockade – biochemical, quenched peptide fluorescence, cherry-pick, selectivity assay for Rce1 protease inhibitor project, dose response (AID 488789)
Sequence of Trypsin (P00761 whole entry): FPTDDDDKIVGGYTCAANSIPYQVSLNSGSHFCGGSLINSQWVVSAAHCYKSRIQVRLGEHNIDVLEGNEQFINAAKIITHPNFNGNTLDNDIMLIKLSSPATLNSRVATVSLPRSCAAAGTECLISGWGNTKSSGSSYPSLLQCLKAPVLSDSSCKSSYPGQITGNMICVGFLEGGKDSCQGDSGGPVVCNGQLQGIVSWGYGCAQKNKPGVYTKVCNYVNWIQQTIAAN

[13] = molecular target: Glyceraldehyde-3-phosphate dehydrogenase (Homo sapiens, UniProt P04406)
[14] = molecular target: Alkaline phosphatase, placental type (Homo sapiens, UniProt P05187); experiment: human placental alkaline phosphatase inhibition – biochemical, luminescence, confirmation (AID 1512); assay type: functional
[15] = molecular target: Hexokinase (Trypanosoma brucei, UniProt Q38C41); experiment: Confirmation assay for inhibitors of Trypanosoma brucei hexokinase 1-Analogue-first series. [Related pubchem assays (depositor defined):AID1430, AID1632, AID2516, AID2560, AID2579, AID2600, AID449725, AID492951]; assay type: functional

Sequence of Polyadenylate-binding protein 1 (P11940 whole entry): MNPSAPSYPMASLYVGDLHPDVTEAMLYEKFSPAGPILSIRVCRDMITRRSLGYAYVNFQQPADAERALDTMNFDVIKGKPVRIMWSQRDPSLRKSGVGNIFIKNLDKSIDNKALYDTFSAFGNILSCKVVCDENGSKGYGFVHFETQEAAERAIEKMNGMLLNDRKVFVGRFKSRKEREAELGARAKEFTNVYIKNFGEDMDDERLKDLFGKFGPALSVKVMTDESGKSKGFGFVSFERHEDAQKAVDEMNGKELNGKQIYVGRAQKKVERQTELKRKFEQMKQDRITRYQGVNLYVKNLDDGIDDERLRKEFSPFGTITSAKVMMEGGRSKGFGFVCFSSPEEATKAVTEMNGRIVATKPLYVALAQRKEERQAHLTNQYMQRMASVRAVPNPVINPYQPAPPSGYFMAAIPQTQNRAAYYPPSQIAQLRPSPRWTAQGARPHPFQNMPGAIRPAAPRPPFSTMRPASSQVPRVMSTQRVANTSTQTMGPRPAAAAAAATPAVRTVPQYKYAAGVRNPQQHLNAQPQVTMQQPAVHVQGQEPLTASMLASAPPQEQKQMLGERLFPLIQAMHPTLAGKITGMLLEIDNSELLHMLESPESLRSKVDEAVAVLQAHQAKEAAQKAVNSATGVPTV

SMILES: COc1cc(Cl)c(C)cc1NC(=O)COC(=O)c1ccc(NC(N)=O)cc1
IC50 [1]: > 100 µM (inactive) | IC50 [2]: > 100 µM (inactive)

SMILES: COc1ccc(-c2sc3ccccc3c2-c2ccc(OCCN(C)C)cc2)cc1
AC50 [3]: 13 µM (active) | EC50 [4]: > 89.2 µM (inactive) | AC50 [5]: 3.45 µM (active) | EC50 [6]: > 57 µM (inactive) | EC50 [7]: 57.1 µM (active) | IC50 [8]: > 20 µM (inactive) | AC50 [9]: 8.01 µM (active) | AC50 [10]: 1.69 µM (active)

AC50 [11]: 3.73 µM (active) | AC50 [12]: > 100 µM (inactive)
SMILES: Cc1ccc(C(=O)c2c3ccc(C(F)(F)F)cc3nn2CCC(N)=O)cc1

IC50 [13]: > 100 µM (not active) | IC50 [14]: > 100 µM (inactive)
SMILES: O=C1c2ccccc2C(=O)N1c1nc(Cc2ccccc2)n[nH]1

SMILES: COc1ccc(C(=O)Nc2cc(OC)ccc2C(=O)O)cc1
IC50 [15]: > 25 µM (inactive)
